Laboratory results as given in patent publication US8293774B2, “Optically active (R)-aryloxypropionic acid amides and herbicidal composition comprising same” (Kyung Nong Corporation, priority 2007, dated 2012).

Experiments:
Rice = assay: Weed control test, 4-leaf stage plants (Test Example 1, Table 8); conditions: in vivo
Procedure: Seeds of rice, wheat, soy bean, barley, corn, common sorgum, barnyard grass, large crabgrass, creek grass, green foxtail and fall panicum were placed in sandy loam in 600 cm^2 pots and covered with soil. After keeping the pots in a greenhouse at 20 to 30° C. allowing growth of the plants to the 3-leaf stage of the barnyard grass, 2,000 l/ha of an emulsion obtained by diluting with water a mixture of 1 part by weight of a test compound, 5 parts by weight of acetone and 1 part by weight of an emulsifying agent (Tween 80, Junsei) was applied to the surface of the foliage of the plants. The plant damage at 10 days and 20 days after the foliage treatment was visually evaluated from the level of 1 to 100% by comparison with the untreated control: […]

Barnyard grass = assay: as above; format: in vivo, Echinoch crus-galli Beauv. var. caudata Kitagawa
rice (Nampyung rice) = assay: Foliage treatment with emulsions, dry rice field conditions, harmful effect on rice (Test Example 2, Table 9); format: in vivo; conditions: 6~6.5-leaf stage, 150 g a.i./ha, emulsion
Excerpt: (§1) Seeds of rice (Nampyung rice) and barnyard grasses (Echinochloa oryzicola and Echinochloa crus-galli var. crus-galli) were placed in sandy loam of pots, covered with soil, and grown in the dry rice field conditions.

[1] = system: Echinochloa crus-galli var. crus-galli; assay: Foliage treatment with emulsions, dry rice field conditions (Test Example 2, Table 9); format: in vivo; conditions: 150 g a.i./ha; emulsion of Formulation Example 3; division stage 1~2; 20 days after foliage treatment
Excerpt: as §1
(§2) Rice (6˜6.5-leaf stage, plant height 33.2 cm) and barnyard grasses (Echinochloa oryzicola: division stage 1˜2, plant height 38.0 cm, Echinochloa crus-galli var. crus-galli: division stage 1˜2, plant height 44.1 cm) were subjected to a foliage treatment with emulsions prepared according to Formulation Example 3 by using compounds of Examples 1, 5 and 13 (purity: 99% or more), wherein the emulsions were sprayed to the plants at a dosage of the active compound of 150 g/ha.
(§3) The herbicidal effect on the barnyard grasses and harmful effect on the rice of the test compounds at 20 days and 30 days after the foliage treatment were visually evaluated as in Test Example 1 in comparison with the untreated control, and the results are shown in Table 9.

Echinochloa oryzicola = assay: as above; format: in vivo; conditions: 150 g a.i./ha; emulsion of Formulation Example 3; division stage 1~2; 20 days after foliage treatment
Excerpt: as §1, §2, §3

[2] = system: GLXMA (Glycine max(L.) MERR, soy bean); assay: Weed control test, foliage treatment (Test Example 1, Table 7); conditions: in vivo
[3] = system: TRZAW (Tritium aestivum L., wheat); assay: as above; conditions: in vivo
[4] = system: SORBI (Andropogon sorghum, common sorgum); assay: as above; format: in vivo; conditions: Sorghum bicolor, foliar, read-out: Plant damage (herbicidal activity), visually evaluated, SORBI
In short: (§4)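 Greenhouse pot plants in sandy loam at 20 to 30 °C, grown to the 3-leaf stage of barnyard grass. Foliage sprayed at 2,000 l/ha with a water-diluted emulsion of compound, acetone and Tween 80 (1:5:1 by weight). Damage scored visually, 1 to 100% versus untreated control, at 10 and 20 days.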

[5] = system: SETVIR (Setaria viridis (L.) Beauv, green foxtail); assay: as above; format: in vivo; conditions: Setaria viridis, foliar, read-out: Plant damage (herbicidal activity), visually evaluated, SETVIR
In short: as §4

[6] = system: DIGSA (Digitaria Sanguinalis (L.) SCOP, large crabgrass); assay: as above; format: in vivo; conditions: Digitaria sanguinalis, foliar, read-out: Plant damage (herbicidal activity), visually evaluated, DIGSA
In short: as §4

[7] = system: ECHOG (Echinoch crus-galli Beauv. var. caudata Kitagawa, barnyard grass); assay: as above; format: in vivo; conditions: Echinochloa crus-galli, foliar, 3-leaf stage, read-out: Plant damage (herbicidal activity), visually evaluated, ECHOG
In short: as §4

[8] = system: ARTHIS (Arthraxon hispidus (Thunb.) Makino, creek grass); assay: as above; format: in vivo; conditions: Arthraxon hispidus, foliar, read-out: Plant damage (herbicidal activity), visually evaluated, ARTHIS
In short: as §4

[9] = system: PANDI (Panium dichotomiflorum Michx, fall panicum); assay: as above; format: in vivo; conditions: Panicum dichotomiflorum, foliar, read-out: Plant damage (herbicidal activity), visually evaluated, PANDI
In short: as §4

[10] = system: ZEAMX (Zea mays L., corn); assay: as above; format: in vivo; conditions: Zea mays, foliar, read-out: Plant damage (herbicidal activity), visually evaluated, ZEAMX
In short: as §4

C[C@@H](Oc1ccc(Oc2nc3ccc(Cl)cc3o2)cc1)C(=O)Nc1nc2ccccc2s1 [Example 5, (R)-2-[4-(6-chloro-2-benzoxazolyloxy)phenoxy]propionic acid-N-(2-benzothiazolyl)amide]
80%: pest or weed control at 25 g/ha ([5]; 0.025 kg/ha)
40%: pest or weed control at 25 g/ha ([8]; 0.025 kg/ha)
100%: Plant damage (herbicidal activity), visually evaluated, Barnyard grass (Barnyard grass; 0.1 kg/ha) | Plant damage (herbicidal activity), visually evaluated, Barnyard grass (Barnyard grass; 0.4 kg/ha) | Herbicidal effect (0~100), 20 days, Echinochloa crus-galli var. crus-galli [1] | Herbicidal effect (0~100), 20 days, Echinochloa oryzicola (Echinochloa oryzicola) | pest or weed control at 100 g/ha ([4]; 0.1 kg/ha) | pest or weed control at 200 g/ha ([4]; 0.2 kg/ha) | pest or weed control at 100 g/ha ([5]; 0.1 kg/ha) | pest or weed control at 200 g/ha ([5]; 0.2 kg/ha) | pest or weed control at 100 g/ha ([6]; 0.1 kg/ha) | pest or weed control at 200 g/ha ([6]; 0.2 kg/ha) | pest or weed control at 100 g/ha ([7]; 0.1 kg/ha) | pest or weed control at 200 g/ha ([7]; 0.2 kg/ha) | pest or weed control at 100 g/ha ([8]; 0.1 kg/ha) | pest or weed control at 200 g/ha ([8]; 0.2 kg/ha) | pest or weed control at 100 g/ha ([9]; 0.1 kg/ha) | pest or weed control at 200 g/ha ([9]; 0.2 kg/ha) | plant injury at 100 g/ha ([10]; 0.1 kg/ha) | plant injury at 200 g/ha ([10]; 0.2 kg/ha)
25%: pest or weed control at 25 g/ha ([4]; 0.025 kg/ha)
0%: Plant damage (herbicidal activity), visually evaluated, Rice (Rice) | Harmful effect, 20 days (rice (Nampyung rice); 20 days after foliage treatment) | Harmful effect, 30 days (rice (Nampyung rice); 30 days after foliage treatment) | Plant damage (herbicidal activity), visually evaluated, GLXMA [2] | Plant damage (herbicidal activity), visually evaluated, TRZAW [3]
70%: Plant damage (herbicidal activity), visually evaluated, Barnyard grass (Barnyard grass; 0.025 kg/ha)
95%: Plant damage (herbicidal activity), visually evaluated, Barnyard grass (Barnyard grass; 0.05 kg/ha) | pest or weed control at 25 g/ha ([6]; 0.025 kg/ha) | pest or weed control at 25 g/ha ([7]; 0.025 kg/ha)
90%: pest or weed control at 25 g/ha ([9]; 0.025 kg/ha)
60%: plant injury at 25 g/ha ([10]; 0.025 kg/ha)
